According to patent US20160024421A1, “IONIC LIQUIDS CONTAINING QUATERNARY PHOSPHONIUM CATIONS AND CARBOXYLATE ANIONS, AND THEIR USE AS LUBRICANT ADDITIVES” (UT-Battelle, LLC, priority 2014, published 2016):
Like-named read-outs stand apart in the source and are kept apart here.

Assays:
Format in all cases: physicochemical
Density = test: Density
[1] = Kinematic viscosity (Petrolab Minivis II viscometer); set-up: unit not given here
Method: (§1) Thermogravimetric analysis (TGA) was performed on a thermogravimetric analyzer (TGA-2950, TA instruments) at a 10° C./min heating rate in air. […] The kinematic viscosities were measured on a […] viscometer.

[2] = Thermogravimetric analysis (decomposition temperature)
Method: as §1

Density @ 20° C. (Density; 20° C.) | Kinematic Viscosity @ 40° C. ([1]; 40° C.) | Decomp. temperature ([2]; TGA, 10° C./min heating rate in air) | Compound | Decomp. temperature [2] | Density @ 20° C. (Density) | Kinematic Viscosity @ 40° C. [1]
0.89 g/mL | solid |  | CCCCCCCCCC(=O)[O-].CCCCCCCCCCCCCC[P+](CCCCCC)(CCCCCC)CCCCCC [[P66614][C9H19COO]s] |  |  | 
0.88 g/mL |  | 308 °C | CCCCCCCCCCCCCCCCCC(=O)[O-].CCCCCCCCCCCCCC[P+](CCCCCC)(CCCCCC)CCCCCC [[P66614][C17H35COO]s] |  |  | 
 |  |  | trihexyltetradecylphosphonium 2-ethylhexanoate [[P66614][C7H15COO]b] | 308 °C | 0.88 g/mL | 184.8
 |  |  | trihexyltetradecylphosphonium octanoate [[P66614][C7H15COO]s] | 261 °C |  | 122.2
